Target: T1, Human BCL6 protein (N-terminal HiBiT tagged BCL6 in HT1080 cells) (Homo sapiens, UniProt P41182+Q96SW2)
T1 construct: Human BCL6 protein coding open reading frame; expressed in transfected cells; host or cells: HT1080 (ATCC CCL-121), stably transduced with lentivirus pLV-UBC-N-HiBiT-BCL6-PGK-puro
Experiment: HiBiT based BCL6 degradation assay
Type: cell-based
Conditions: HT1080 cells expressing N-terminal HiBiT tagged BCL6; 5 hours incubation; BCL6 degradation normalized with DMSO control
Summary of the method: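 HT1080 cells stably expressing N-terminal HiBiT-BCL6 were treated with compound dilution series for 5 h at 37° C. in RPMI 1640 with 10% FBS. HiBiT lytic luminescence read after 15 min; degradation normalized to DMSO, with curves fitted by four-parameter logistic model.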

Structure (SMILES) | Ymin (5 hr)
CNC(=O)COc1cc2cc(Nc3nc(N4CCC[C@H]4CNc4cccc(C5CCC(=O)NC5=O)c4)ncc3Cl)ccc2n(C)c1=O (stereo partly drawn) [Compound 260b, 2-((6-((5-chloro-2-((2S)-2-(((3-(2,6-dioxopiperidin-3-yl)phenyl)amino)methyl)pyrrolidin-1-yl)pyrimidin-4-yl)amino)-1-methyl-2-oxo-1,2-dihydroquinolin-3-yl)oxy)-N-methylacetamide] | + (Ymin > 70%)
CNC(=O)COc1cc2cc(Nc3nc(N4CCN(CC5CCN(c6ccc7c(C8CCC(=O)NC8=O)nn(C)c7c6)CC5)[C@@H](C)C4)ncc3Cl)ccc2n(C)c1=O (stereo partly drawn) [Compound 309b, 2-((6-((5-chloro-2-((3S)-4-((1-(3-(2,6-dioxopiperidin-3-yl)-1-methyl-1H-indazol-6-yl)piperidin-4-yl)methyl)-3-methylpiperazin-1-yl)pyrimidin-4-yl)amino)-1-methyl-2-oxo-1,2-dihydroquinolin-3-yl)oxy)-N-methylacetamide] | +++ (25% < Ymin ≤ 50%)
CNC(=O)COc1cc2cc(Nc3nc(N4CCC[C@H](COc5ccc6c(C7CCC(=O)NC7=O)nn(C)c6c5)C4)ncc3Cl)ccc2n(C)c1=O (stereo partly drawn) [Compound 302a, 2-((6-((5-chloro-2-((3S)-3-(((3-(2,6-dioxopiperidin-3-yl)-1-methyl-1H-indazol-6-yl)oxy)methyl)piperidin-1-yl)pyrimidin-4-yl)amino)-1-methyl-2-oxo-1,2-dihydroquinolin-3-yl)oxy)-N-methylacetamide] | ++ (50% < Ymin ≤ 70%)
CNC(=O)COc1cc2cc(Nc3nc(N4CCC(C5CN(c6cccc7c(C8CCC(=O)NC8=O)nn(C)c67)C5)CC4)ncc3Cl)ccc2n(C)c1=O (stereo not shown) [Compound 286, 2-((6-((5-chloro-2-(4-(1-(3-(2,6-dioxopiperidin-3-yl)-1-methyl-1H-indazol-7-yl)azetidin-3-yl)piperidin-1-yl)pyrimidin-4-yl)amino)-1-methyl-2-oxo-1,2-dihydroquinolin-3-yl)oxy)-N-methylacetamide] | +++ (25% < Ymin ≤ 50%)
CNC(=O)COc1cc2cc(Nc3nc(N4CCC[C@H](COc5cccc6c(C7CCC(=O)NC7=O)nn(C)c56)C4)ncc3Cl)ccc2n(C)c1=O (stereo partly drawn) [Compound 301a, 2-((6-((5-chloro-2-((3S)-3-(((3-(2,6-dioxopiperidin-3-yl)-1-methyl-1H-indazol-7-yl)oxy)methyl)piperidin-1-yl)pyrimidin-4-yl)amino)-1-methyl-2-oxo-1,2-dihydroquinolin-3-yl)oxy)-N-methylacetamide] | ++ (50% < Ymin ≤ 70%)
CNC(=O)COc1cc2cc(Nc3nc(N4CCC(CCNc5ccc(C6CCC(=O)NC6=O)cc5)CC4)ncc3Cl)ccc2n(C)c1=O (stereo not shown) [Compound 284, 2-((6-((5-chloro-2-(4-(2-((4-(2,6-dioxopiperidin-3-yl)phenyl)amino)ethyl)piperidin-1-yl)pyrimidin-4-yl)amino)-1-methyl-2-oxo-1,2-dihydroquinolin-3-yl)oxy)-N-methylacetamide] | ++ (50% < Ymin ≤ 70%)
CNC(=O)COc1cc2cc(Nc3nc(N4CCC[C@H](CCNc5ccc6c(C7CCC(=O)NC7=O)nn(C)c6c5)C4)ncc3Cl)ccc2n(C)c1=O (single isomer, unassigned) [Compound 290a] | ++ (50% < Ymin ≤ 70%)
CNC(=O)COc1cc2cc(Nc3nc(N4CCC(CN5CCN(c6cccc7c(C8CCC(=O)NC8=O)nn(C)c67)CC5)CC4)ncc3Cl)ccc2n(C)c1=O (stereo not shown) [Compound 333, 2-((6-((5-chloro-2-(4-((4-(3-(2,6-dioxopiperidin-3-yl)-1-methyl-1H-indazol-7-yl)piperazin-1-yl)methyl)piperidin-1-yl)pyrimidin-4-yl)amino)-1-methyl-2-oxo-1,2-dihydroquinolin-3-yl)oxy)-N-methylacetamide] | ++++ (Ymin ≤ 25%)
CNC(=O)COc1cc2cc(Nc3nc(N4CCC(CN5CCN(C(=O)c6cccc(C7CCC(=O)NC7=O)c6)CC5)CC4)ncc3Cl)ccc2n(C)c1=O (stereo not shown) [Compound 314, 2-((6-((5-chloro-2-(4-((4-(3-(2,6-dioxopiperidin-3-yl)benzoyl)piperazin-1-yl)methyl)piperidin-1-yl)pyrimidin-4-yl)amino)-1-methyl-2-oxo-1,2-dihydroquinolin-3-yl)oxy)-N-methylacetamide] | ++ (50% < Ymin ≤ 70%)
CNC(=O)COc1cc2cc(Nc3nc(N4CCC(CCCOc5ccc6c(C7CCC(=O)NC7=O)nn(C)c6c5)CC4)ncc3Cl)ccc2n(C)c1=O (stereo not shown) [Compound 296, 2-((6-((5-chloro-2-(4-(3-((3-(2,6-dioxopiperidin-3-yl)-1-methyl-1H-indazol-6-yl)oxy)propyl)piperidin-1-yl)pyrimidin-4-yl)amino)-1-methyl-2-oxo-1,2-dihydroquinolin-3-yl)oxy)-N-methylacetamide] | +++ (25% < Ymin ≤ 50%)
CNC(=O)COc1cc2cc(Nc3nc(N4CCC(CN5CCN(C(=O)c6cccc7c(C8CCC(=O)NC8=O)nn(C)c67)CC5)CC4)ncc3Cl)ccc2n(C)c1=O (stereo not shown) [Compound 324, 2-((6-((5-chloro-2-(4-((4-(3-(2,6-dioxopiperidin-3-yl)-1-methyl-1H-indazole-7-carbonyl)piperazin-1-yl)methyl)piperidin-1-yl)pyrimidin-4-yl)amino)-1-methyl-2-oxo-1,2-dihydroquinolin-3-yl)oxy)-N-methylacetamide] | +++ (25% < Ymin ≤ 50%)
CNC(=O)COc1cc2cc(Nc3nc(N4CCC[C@@H](Nc5ccc6c(C7CCC(=O)NC7=O)nn(C)c6c5)C4)ncc3Cl)ccc2n(C)c1=O (stereo partly drawn) [Compound 280b, 2-((6-((5-chloro-2-((3R)-3-((3-(2,6-dioxopiperidin-3-yl)-1-methyl-1H-indazol-6-yl)amino)piperidin-1-yl)pyrimidin-4-yl)amino)-1-methyl-2-oxo-1,2-dihydroquinolin-3-yl)oxy)-N-methylacetamide] | + (Ymin > 70%)
CNC(=O)COc1cc2cc(Nc3nc(N4CCN(C5CN(c6cccc7c(C8CCC(=O)NC8=O)nn(C)c67)C5)CC4)ncc3Cl)ccc2n(C)c1=O (stereo not shown) [Compound 283, 2-((6-((5-chloro-2-(4-(1-(3-(2,6-dioxopiperidin-3-yl)-1-methyl-1H-indazol-7-yl)azetidin-3-yl)piperazin-1-yl)pyrimidin-4-yl)amino)-1-methyl-2-oxo-1,2-dihydroquinolin-3-yl)oxy)-N-methylacetamide] | +++ (25% < Ymin ≤ 50%)
CNC(=O)COc1cc2cc(Nc3nc(N4CCC[C@H](CN(C)c5ccc6c(C7CCC(=O)NC7=O)nn(C)c6c5)C4)ncc3Cl)ccc2n(C)c1=O (stereo partly drawn) [Compound 312a, 2-((6-((5-chloro-2-((3R)-3-(((3-(2,6-dioxopiperidin-3-yl)-1-methyl-1H-indazol-6-yl)(methyl)amino)methyl)piperidin-1-yl)pyrimidin-4-yl)amino)-1-methyl-2-oxo-1,2-dihydroquinolin-3-yl)oxy)-N-methylacetamide] | ++ (50% < Ymin ≤ 70%)
CNC(=O)COc1cc2cc(Nc3nc(N4CCN(CC5CCC6(CC5)CN(c5cccc7c(C8CCC(=O)NC8=O)nn(C)c57)C6)CC4)ncc3Cl)ccc2n(C)c1=O (stereo not shown) [Compound 104, 2-((6-((5-chloro-2-(4-((2-(3-(2,6-dioxopiperidin-3-yl)-1-methyl-1H-indazol-7-yl)-2-azaspiro[3.5]nonan-7-yl)methyl)piperazin-1-yl)pyrimidin-4-yl)amino)-1-methyl-2-oxo-1,2-dihydroquinolin-3-yl)oxy)-N-methylacetamide] | +++ (25% < Ymin ≤ 50%)
CNC(=O)COc1cc2cc(Nc3nc(N4CCN(CC5CCN(c6ccc7c(C8CCC(=O)NC8=O)nn(C)c7c6)CC5)[C@H](C)C4)ncc3Cl)ccc2n(C)c1=O (stereo partly drawn) [Compound 309a, 2-((6-((5-chloro-2-((3R)-4-((1-(3-(2,6-dioxopiperidin-3-yl)-1-methyl-1H-indazol-6-yl)piperidin-4-yl)methyl)-3-methylpiperazin-1-yl)pyrimidin-4-yl)amino)-1-methyl-2-oxo-1,2-dihydroquinolin-3-yl)oxy)-N-methylacetamide] | +++ (25% < Ymin ≤ 50%)
CNC(=O)COc1cc2cc(Nc3nc(N4CCN(C(=O)C5CCN(c6cccc7c(C8CCC(=O)NC8=O)nn(C)c67)CC5)CC4)ncc3Cl)ccc2n(C)c1=O (stereo not shown) [Compound 345, 2-((6-((5-chloro-2-(4-(1-(3-(2,6-dioxopiperidin-3-yl)-1-methyl-1H-indazol-7-yl)piperidine-4-carbonyl)piperazin-1-yl)pyrimidin-4-yl)amino)-1-methyl-2-oxo-1,2-dihydroquinolin-3-yl)oxy)-N-methylacetamide] | ++++ (Ymin ≤ 25%)
CNC(=O)COc1cc2cc(Nc3nc(N4CCCC5(CN(c6ccc7c(C8CCC(=O)NC8=O)nn(C)c7c6)C5)C4)ncc3Cl)ccc2n(C)c1=O (stereo not shown) [Compound 329, 2-((6-((5-chloro-2-(2-(3-(2,6-dioxopiperidin-3-yl)-1-methyl-1H-indazol-6-yl)-2,6-diazaspiro[3.5]nonan-6-yl)pyrimidin-4-yl)amino)-1-methyl-2-oxo-1,2-dihydroquinolin-3-yl)oxy)-N-methylacetamide] | ++ (50% < Ymin ≤ 70%)
CNC(=O)COc1cc2cc(Nc3nc(N4CCC5(CCC(Nc6cccc7c(C8CCC(=O)NC8=O)nn(C)c67)CC5)C4)ncc3Cl)ccc2n(C)c1=O (stereo not shown) [Compound 344, 2-((6-((5-chloro-2-(8-((3-(2,6-dioxopiperidin-3-yl)-1-methyl-1H-indazol-7-yl)amino)-2-azaspiro[4.5]decan-2-yl)pyrimidin-4-yl)amino)-1-methyl-2-oxo-1,2-dihydroquinolin-3-yl)oxy)-N-methylacetamide] | ++ (50% < Ymin ≤ 70%)

Reference: patent publication US20250270191A1, “QUINOLONE BCL6 BIFUNCTIONAL DEGRADERS” (Treeline Biosciences, Inc., priority 2022, published 2025)
